These results are taken from EP1501797B1, “3-(SUBSTITUTED AMINO)-1H-INDOLE-2-CARBOXYLIC ACID ESTER AND 3-(SUBSTITUTED AMINO)-BENZO[B]THIOPHENE-2-CARBOXYLIC ACID ESTER DERIVATIVES AS INTERLEUKIN-4 GENE EXPRESSION INHIBITORS” (Aventis Pharmaceuticals Inc., priority 2002, dated 2003).

Where “and” joins values, the source holds several entries; their conditions need not be identical. Equal entries are not always repeated.

The subject of one assay is IgG1 Anti-DNP Antibody. Kind of assay: In vivo model of humoral immunity in mice (DNP-KLH), IgG1 anti-DNP antibody. As to the method: Female Balb/c mice, each weighing approximately 20 to 25 grams each, aged 5 to 8 weeks are used. Each experiment uses 30 mice.
The antigen for immunization is 2,4-dinitrophenyl (DNP) or 2,4,6-trinitrophenyl (TNP) conjugated to keyhole limpet haemocyanin (KLH). The antigen (100 µg/mouse) is adsorbed to an adjuvant (colloidal aluminum hydroxide) and given i.p. to animal in a total volume of 0.2-0.3 ml.
Animals are randomly divided into 5 groups of 6 mice each. Group 1 is a positive control group, Groups 2, 3, and 4 are test compound groups, and Group 5 is a vehicle control group. Compounds may be given by i.n., i.p., p.o., s.c., i.m. or i.v. administration. […] On day 8 after the immunization, mice are bled by cardiac puncture under anesthesia (isoflurane), and the serum samples are stored at -20°C until required for antibody analysis. The anesthetized animals are euthanized with overdosage of sodium pentobarbital at the end of experiment. Statistical analysis of the data are performed using ANOVA.
Mice are immunized with a hapten carrier conjugate, DNP-KLH, and anti-DNP antibody levels are determined in a isotype specific manner as described above. […]

The next assay relates to IFN-γ. Kind of assay: Human primary Th2 cells, anti-CD3/anti-CD28 activated, IFN-γ ELISA. In kind it is cell-based. The method, then: Briefly, CD4^+CD45RA^+ T cells, isolated from donor peripheral blood mononuclear cells of healthy donors, are educated in the presence of anti-CD3/CD28 antibodies and various growth factors to obtain either a Thl-like or Th2-like phenotypes as determined by the known cytokine profiles of these two cell types.
Peripheral blood mononuclear cells (PBMC) are prepared from human blood by Ficoll-Hypacque (Pharmacia). The cells are washed two times in Hanks balanced salt solution (HBSS) and counted.
Naive T cells (CD4^+/CD45RA ) are prepared by negative selection method using following antibodies and Dynabeads: anti-CD8, anti-HLA-DR, (where HLA means human leucocyte antigen) anti-CD14, anti-CD16, anti-CD19, anti-CD45RO antibodies (all from R&D Systems, 1-2 µg/ml) are added to the cells, and the cells are kept on ice for 30 min. The cells are washed two times in HBSS, and goat anti- mouse Ig-beads, (bead:target ratio, 5:1) are added. The cells and beads are slowly rotated at 4°C for 20 min. (following the protocol supplied from Dynal). The supernatant is removed and fresh goat anti-mouse Ig-beads are added to the supernatant, which is slowly rotated at 4°C for 20 min. The cells are counted and phenotypically characterized by flow cytometric analysis.
CD4^+/CD45RA^+ cells at a density of 10^6/ml in RPMI, is prepared and added to RPMI medium containing 10% Hyclone serum/ glutamine and 1-2 µg/ml anti-CD28 Ab. The cells are split in two aliquots. For Th1 cells: anti-IL-4 Ab (1-2 µg/ml), IFN-γ (1 µg/ml, or 5000 units/ml) are added to the wells. For Th2 cells: IL-4 (100-200 ng/ml), anti-IFN-γ neutralizing Ab (1-2 µg/ml), anti-IL-12 neutralizing Ab (1-2 µg/ml) are added into the wells. […] The cells are transferred to fresh wells and grown in 200 units/ml IL-2 for 2 weeks by feeding them every other day with IL-2 containing medium and splitting the cultures 1:2 or 1:3 as needed. The degree of polarization is determined by intracellular staining of cells with anti-IFN-γ and anti-IL-4 antibodies from Pharmingen, and using flow cytometry from Becton Dickinson (BD), according to manufacturers description. The cells are stimulated with PHA and alloantigens at day 14 and 28 as described below. Eight days after the second allostimulation the cells can be used for compound screening or frozen for future use. For compound testing, large quantities of Th1 and Th2 cells derived from a given donor (NYTh1 and NYTh2) were expanded and frozen as aliquots in liquid nitrogen. The cells are thawed and cultured as and when needed. The thawed cells are stimulated with alloantigen/PHA combination. The cells are used for compound screening after 8-10 days in culture.
Re-stimulation by allogeneic cells: Human PBMCs, to be used as alloantigens, are isolated from freshly drawn blood by Ficoll separation. […] Cells are counted and diluted to a final concentration of 2 x 10^6/ml in medium containing 10 µg/ml PHA and 200 units/ml IL-2.
Ninetysix well Falcon tissue culture plates (Fisher Scientific) are coated with 100 microliters per well of 10 µg/ml anti-CD3 (PharMingen) antibody in phosphate buffered saline (PBS) and stored at 4°C one day before the experiment.
On the day of assay, anti-CD3 antibody coated plates are washed with PBS once to remove all soluble anti-CD3 antibody. […] All compounds and controls are assayed in triplicates.

The next assay deals with human IL-13 promoter. Kind of assay: IL-13 Luc assay in Jurkat cells (2.1IL-13 Luc). It is filed as cell-based. The settings on record: Jurkat cell line; concentration not given; 480 min.

Procedure for human IL-13 promoter: Jurkats containing 2.1IL-13 Luc (monoclonal lines) were plated at a density of 50,000 cells in 120 µL per well, and grown for 16 hours. The cultures were then stimulated with 10 ng/ml of Phorbol 12-myristate 13-acetate (PMA) and 1.0 µM calcium ionophore A23187 in 10 µL of media for 8 hours. The stimulation process was terminated by the addition of 50 µL s of 1x lysis buffer (25 mM Tris Phosphate, pH 7.8, 2.0 mM dithiothritol (DTT), 2 .0 mM ethylenediamine tetra-acetic acid (EDTA), 100 ml/L glycerol, 1.0% Triton X-100 (v/v)). The cells were incubated in the presence of lysis buffer for 5 minutes, pipetted up and down, 5x, to ensure complete lysis. A 100 µL aliquot of the cell lysate was transferred to white luminometer plates (Dynatech) and assayed for luciferase activity with a Dynatech luminometer.

Turning to `O=C(O)c1[nH]c2ccccc2c1Nc1ccncc1` [Example 28, 3-(4-Pyridinylamino)-1H-indole-2-carboxylic acid], the “IgG1 Anti-DNP Antibody Titer” value with IgG1 Anti-DNP Antibody (individual animals 1-6, dose not stated) is 72.42 and 185.22 and 19.83 and 40.19 and 83.11 and 37.83. The “IgG1 Anti-DNP Antibody Titer Mean+/-SE” value with IgG1 Anti-DNP Antibody (vehicle 167.69 +/-18.19, dose not stated) is given as 73.10 +/-24.38. The “IgG1 Anti-DNP Antibody Titer Inhibition” value with IgG1 Anti-DNP Antibody (versus vehicle) is 56.5%. In addition, the activity at 0.01 µM with IFN-γ (Homo sapiens, 0.01 µM, 48 hr, read-out: IFN-γ (% control) mean) is 96.9%. Also, the activity at 0.03 µM in the assay with IFN-γ (Homo sapiens, 0.03 µM, 48 hr, read-out: IFN-γ (% control) mean) is 91.6%. Besides, the activity at 0.1 µM in the assay on IFN-γ (Homo sapiens, 0.1 µM, 48 hr, read-out: IFN-γ (% control) mean) is 91.8%. Besides, in the assay on IFN-γ (Homo sapiens, 0.3 µM, 48 hr, read-out: IFN-γ (% control) mean), the activity at 0.3 µM came to 92.1%. Further, in the assay on IFN-γ (Homo sapiens, 1 µM, 48 hr, read-out: IFN-γ (% control) mean), the activity at 1 µM turned out to be 89.2%. The activity at 3 µM in the assay with IFN-γ (Homo sapiens, 3 µM, 48 hr, read-out: IFN-γ (% control) mean) came to 83.5%. In the assay with IFN-γ (Homo sapiens, 10 µM, 48 hr, read-out: IFN-γ (% control) mean), the activity at 10 µM was found to be 75%. Moreover, the IC50 in the assay on IFN-γ (Human primary Th2 cells, combined data from 10 different experiments) is over 10 µM. Moreover, the “2.1-IL-13 - Luc (% of control)” value with human IL-13 promoter is listed as 50 ± 12 % of control.

By IC50 is commonly meant the concentration that gives 50% inhibition.
